The target in assay [1] is T1, Platelet-derived growth factor receptor beta (Homo sapiens, UniProt P09619). As to the kind of experiment: Inhibition of PDGFRbeta (unknown origin) by caliper mobility shift assay.
The target of assay [2] is T1, Platelet-derived growth factor receptor beta. As to the kind of experiment: Inhibition of PDGFRbeta (unknown origin) at 100 nM by caliper mobility shift assay relative to control.
The target of assay [3] is Platelet-derived growth factor receptor alpha (Homo sapiens, UniProt P16234). Particulars: dose 100.0 nM.
Chain of Platelet-derived growth factor receptor alpha (P16234 whole entry): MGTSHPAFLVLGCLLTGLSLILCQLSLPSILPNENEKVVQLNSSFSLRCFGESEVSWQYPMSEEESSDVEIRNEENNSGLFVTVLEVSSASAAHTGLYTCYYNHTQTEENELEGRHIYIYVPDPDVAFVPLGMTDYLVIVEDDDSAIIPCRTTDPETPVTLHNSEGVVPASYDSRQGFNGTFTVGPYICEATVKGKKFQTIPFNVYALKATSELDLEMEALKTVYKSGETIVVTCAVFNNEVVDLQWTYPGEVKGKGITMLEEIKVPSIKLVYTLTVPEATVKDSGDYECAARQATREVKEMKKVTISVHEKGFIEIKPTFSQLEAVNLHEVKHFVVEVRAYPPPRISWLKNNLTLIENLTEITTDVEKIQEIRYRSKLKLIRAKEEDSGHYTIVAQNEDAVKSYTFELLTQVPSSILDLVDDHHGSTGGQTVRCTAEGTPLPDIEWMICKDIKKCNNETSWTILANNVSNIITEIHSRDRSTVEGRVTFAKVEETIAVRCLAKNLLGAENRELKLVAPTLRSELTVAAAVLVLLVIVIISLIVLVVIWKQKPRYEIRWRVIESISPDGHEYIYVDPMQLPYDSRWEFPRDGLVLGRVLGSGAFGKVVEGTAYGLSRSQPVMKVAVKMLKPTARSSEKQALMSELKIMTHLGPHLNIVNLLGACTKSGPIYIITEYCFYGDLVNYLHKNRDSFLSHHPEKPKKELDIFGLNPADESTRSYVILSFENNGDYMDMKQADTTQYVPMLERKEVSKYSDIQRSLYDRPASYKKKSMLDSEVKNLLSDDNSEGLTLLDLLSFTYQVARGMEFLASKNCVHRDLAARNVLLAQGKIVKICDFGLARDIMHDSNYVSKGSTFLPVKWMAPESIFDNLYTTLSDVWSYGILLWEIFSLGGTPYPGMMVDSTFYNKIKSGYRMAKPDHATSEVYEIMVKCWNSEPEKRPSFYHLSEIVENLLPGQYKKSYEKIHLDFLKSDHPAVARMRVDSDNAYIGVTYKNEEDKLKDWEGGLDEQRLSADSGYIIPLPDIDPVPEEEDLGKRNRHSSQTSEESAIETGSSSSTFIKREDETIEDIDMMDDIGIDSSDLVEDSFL
Description: Inhibition of PDGFRalpha (unknown origin) at 100 nM by caliper mobility shift assay relative to control

T1 sequence (P09619 whole entry): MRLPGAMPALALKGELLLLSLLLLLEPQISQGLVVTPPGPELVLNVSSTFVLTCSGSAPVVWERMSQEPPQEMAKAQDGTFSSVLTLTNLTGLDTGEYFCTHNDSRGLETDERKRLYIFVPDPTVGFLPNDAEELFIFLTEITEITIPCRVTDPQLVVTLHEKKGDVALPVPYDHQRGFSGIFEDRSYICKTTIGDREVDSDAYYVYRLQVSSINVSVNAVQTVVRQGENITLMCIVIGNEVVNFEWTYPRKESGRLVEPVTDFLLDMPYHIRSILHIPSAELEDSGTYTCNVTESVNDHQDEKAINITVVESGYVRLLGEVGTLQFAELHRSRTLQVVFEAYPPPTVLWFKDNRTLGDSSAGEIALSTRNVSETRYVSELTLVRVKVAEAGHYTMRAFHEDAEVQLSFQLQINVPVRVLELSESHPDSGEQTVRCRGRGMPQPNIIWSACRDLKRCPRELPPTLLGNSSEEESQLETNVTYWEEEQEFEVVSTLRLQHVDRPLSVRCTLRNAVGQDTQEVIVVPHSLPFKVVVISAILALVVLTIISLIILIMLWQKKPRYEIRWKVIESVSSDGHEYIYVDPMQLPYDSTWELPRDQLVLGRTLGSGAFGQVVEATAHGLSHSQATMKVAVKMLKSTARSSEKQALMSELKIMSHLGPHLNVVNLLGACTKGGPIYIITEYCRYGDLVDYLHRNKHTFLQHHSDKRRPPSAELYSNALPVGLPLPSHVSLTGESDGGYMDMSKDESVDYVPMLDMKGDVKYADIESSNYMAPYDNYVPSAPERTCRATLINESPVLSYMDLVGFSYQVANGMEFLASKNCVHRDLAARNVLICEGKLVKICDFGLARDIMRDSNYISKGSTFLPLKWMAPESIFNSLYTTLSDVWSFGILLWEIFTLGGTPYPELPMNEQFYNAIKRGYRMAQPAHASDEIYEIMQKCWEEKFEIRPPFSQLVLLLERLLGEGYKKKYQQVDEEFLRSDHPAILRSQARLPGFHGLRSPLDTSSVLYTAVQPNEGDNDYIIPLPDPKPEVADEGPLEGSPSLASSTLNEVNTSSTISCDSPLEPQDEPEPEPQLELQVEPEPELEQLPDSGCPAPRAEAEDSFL

As to `COc1cc(N2CCC(N3CCN(C)CC3)CC2)ccc1Nc1ncc(C)c(Nc2ccc3cn[nH]c3c2)n1`, the IC50 in assay [1] was determined as 55.6 nM.

For `Cc1cnc(Nc2ccc(N3CCN(C)CC3)cc2)nc1Nc1ccc2[nH]ncc2c1`, in assay [2], the inhibition came out at 84.1%. On to `COc1cc(N2CCN(C)CC2)ccc1Nc1ncc(C)c(Nc2ccc3cn[nH]c3c2)n1`, for which the IC50 in assay [1] is 44.1 nM.

As to `Cc1cnc(Nc2ccc(N3CCN(C)CC3)cc2)nc1Nc1ccc2[nH]ccc2c1`, the values for the inhibition in assay [2] and in assay [3] were 78.6% and 57.3%, respectively. Regarding `CCOC(=O)c1cnc(Nc2ccc(N3CCN(C)CC3)cc2)nc1Nc1ccc2cn[nH]c2c1`, the inhibition in assay [2] stood at 30.7%. As to `Cc1cnc(Nc2ccc(N3CCN(C)CC3)cc2)nc1Nc1ccc2cccnc2c1`, in assay [2], the inhibition is 91%.

For the compound `Cc1cnc(Nc2ccc(N3CCN(C)CC3)cc2)nc1Nc1ccc2cn[nH]c2c1`, the inhibition in assay [2] was determined as 99.6%. As to `COc1cnc(Nc2ccc(N3CCN(C)CC3)cc2)nc1Nc1ccc2cn[nH]c2c1`, the inhibition in assay [2] is 55%. Same read-out and setting: the value for `Cc1cnc(Nc2ccc(N3CCN(C)CC3)cc2)nc1Nc1ccc2c(ccn2C)c1` was 79.2%; that for `Cc1cnc(Nc2ccc(N3CCN(C)CC3)cc2)nc1Nc1ccc2nccnc2c1` was 74.1%; that for `CN1CCN(c2ccc(Nc3nc(Nc4ccc5cn[nH]c5c4)c4sccc4n3)cc2)CC1` was 21.2%. Regarding `Cc1cnc(Nc2ccc(C(=O)NCCN3CCOCC3)cc2)nc1Nc1ccc2cn[nH]c2c1`, the IC50 in assay [1] turned out to be 15.9 nM. `CN1CCN(c2ccc(Nc3nc(Nc4ccc5cn[nH]c5c4)cc(C(F)(F)F)n3)cc2)CC1`: the inhibition in assay [2] worked out at 3.5%. Consider `Cc1cnc(Nc2ccc(N3CCS(=O)(=O)CC3)cc2)nc1Nc1ccc2cn[nH]c2c1`, for which the IC50 in assay [1] stood at 40.9 nM. With `CN1CCN(c2ccc(Nc3ncc(Cl)c(Nc4ccc5cn[nH]c5c4)n3)cc2)CC1`, in assay [2], the inhibition was 95.8%. Take `CN1CCN(c2ccc(Nc3ncc(Br)c(Nc4ccc5cn[nH]c5c4)n3)cc2)CC1`: the inhibition in assay [2] worked out at 97.6%; in assay [3] it was 89.9%. Turning to `Cc1cnc(Nc2ccc(C(=O)N3CCN(C)CC3)cc2)nc1Nc1ccc2cn[nH]c2c1`, in assay [1], the concentration for half-maximal inhibition (IC50) turned out to be 47.7 nM.

The IC50 is the point on the concentration scale where inhibition reaches its midpoint. One may read the inhibition as the drop in the measured response relative to a control, in per cent.
